Drawing on PubChem BioAssay (NCI), this text covers TGI and GI50 for 19 compounds.

Some test systems named below: A549 NSCLC; CCRF-CEM leukemia; COLO 205 colon; IGROV1 ovarian; NCI-H23 lung; OVCAR-8 ovarian; SK-OV-3 ovarian; SN12C renal; SW-620 colon; RPMI-8226 leukemia.
What all share (test): NCI anticancer screen, dose series, 48 h

Structures are written as SMILES.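 Values below derive from 48-hour exposures of cells grown in 96-well plates, with endpoints linearly interpolated between the two concentrations bracketing the appropriate inhibition level. GI50: concentration for 50% inhibition of growth. TGI: total growth inhibition.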

For `CSCCCN(CCCSC)CCCSC`, the TGI in the assay on A549 NSCLC, in the assay with CCRF-CEM leukemia, in the assay with COLO 205 colon, in the assay on IGROV1 ovarian, with NCI-H23 lung and in the assay on OVCAR-8 ovarian was above 100 µM each time. Moreover, the TGI in the assay with SK-OV-3 ovarian, in the assay on SN12C renal and with SW-620 colon was above 100 µM throughout.
`O=C(O)c1cc(C(=O)O)cc(N2C(=O)c3ccccc3C2=O)c1`: the TGI with A549 NSCLC, with COLO 205 colon, in the assay with IGROV1 ovarian, with NCI-H23 lung, in the assay with OVCAR-8 ovarian and in the assay with RPMI-8226 leukemia was above 100 µM throughout. For the same compound, the TGI in the assay with SK-OV-3 ovarian, in the assay on SN12C renal and in the assay with SW-620 colon was above 100 µM in each case.
As to `O=[N+]([O-])c1cnc(Sc2ccncn2)s1`, the GI50 with A549 NSCLC was 10.1 µM; in the assay on CCRF-CEM leukemia, 1.51 µM; in the assay with COLO 205 colon, 1.75 µM; in the assay on IGROV1 ovarian, 1.71 µM; with NCI-H23 lung, 8.99 µM; with OVCAR-8 ovarian, 3.94 µM. Also, the GI50 in the assay with SK-OV-3 ovarian was 21.2 µM; in the assay on SN12C renal, 3.24 µM; with SW-620 colon it was 1.66 µM. In addition, the TGI in the assay with A549 NSCLC was 27.1 µM; in the assay with CCRF-CEM leukemia, 3.53 µM; with COLO 205 colon, 3.35 µM; with IGROV1 ovarian, 3.35 µM; in the assay with NCI-H23 lung, 26.4 µM; in the assay with OVCAR-8 ovarian, 13.1 µM. Also, the TGI turned out to be 45.4 µM in the assay with SK-OV-3 ovarian, 8.41 µM in the assay with SN12C renal and 3.29 µM with SW-620 colon.
Regarding `CC(=O)NC1=C(NCC(C)(C)C)C(=O)c2ccccc2C1=O`, the TGI in the assay with A549 NSCLC, with CCRF-CEM leukemia, in the assay on COLO 205 colon, in the assay on IGROV1 ovarian, in the assay with NCI-H23 lung and with OVCAR-8 ovarian was above 100 µM each time. Moreover, the TGI in the assay on SK-OV-3 ovarian, in the assay with SN12C renal and in the assay with SW-620 colon was above 100 µM throughout.
For `CNC(=O)c1cc(Oc2ccc3nc(NC(=O)Nc4ccc(Cl)c(C(F)(F)F)c4)sc3c2)ccn1`, the GI50 was 2.02 µM with IGROV1 ovarian; 2.48 µM with NCI-H23 lung; 2.34 µM in the assay with OVCAR-8 ovarian; 1.89 µM with SK-OV-3 ovarian; 2.44 µM in the assay on SN12C renal; 2.99 µM in the assay on SW-620 colon. Also, the TGI is 5.12 µM in the assay on IGROV1 ovarian; 8.17 µM with NCI-H23 lung; 5.25 µM in the assay on OVCAR-8 ovarian; 4.21 µM with SK-OV-3 ovarian; above 100 µM with SN12C renal; above 100 µM in the assay on SW-620 colon.
In the case of `C/C(CCn1[nH]c(=O)ccc1=O)=N\O`, the TGI in the assay on A549 NSCLC, with CCRF-CEM leukemia, in the assay on IGROV1 ovarian, in the assay with NCI-H23 lung, in the assay with OVCAR-8 ovarian and in the assay on RPMI-8226 leukemia was above 100 µM each time. Further, the TGI in the assay with SN12C renal and in the assay with SW-620 colon was above 100 µM throughout.
As for `COc1cc2nc(-c3ccc(C(F)(F)F)cc3)cc(OCCCN3CCC(O)CC3)c2cc1OC`, the GI50 with A549 NSCLC was 1.65 µM; in the assay on CCRF-CEM leukemia, 3.27 µM; in the assay on COLO 205 colon, 0.456 µM; in the assay with IGROV1 ovarian it was 0.9 µM; with NCI-H23 lung, 6.16 µM; in the assay on OVCAR-8 ovarian, 1.66 µM. Besides, the GI50 in the assay with SK-OV-3 ovarian was 10.6 µM; in the assay on SN12C renal it was 1.44 µM; in the assay on SW-620 colon, 3.53 µM. The TGI with A549 NSCLC turned out to be 18.4 µM; in the assay on CCRF-CEM leukemia it was 17.7 µM; with COLO 205 colon, 12.1 µM; with IGROV1 ovarian, 18.2 µM; with NCI-H23 lung, 21 µM; in the assay with OVCAR-8 ovarian, 22.2 µM. Besides, the TGI in the assay with SK-OV-3 ovarian was found to be 25.3 µM; with SN12C renal, 19.7 µM; with SW-620 colon, 14.8 µM.
Take `O=C(O)CCSC(=O)Nc1cccc(F)c1`: the TGI in the assay on A549 NSCLC, in the assay with CCRF-CEM leukemia, in the assay on COLO 205 colon, with NCI-H23 lung, with OVCAR-8 ovarian and in the assay with RPMI-8226 leukemia was above 100 µM each time. The TGI in the assay on SN12C renal and with SW-620 colon was above 100 µM each time.
`O=C1NC2(CCCCC2)C2CCCCC(O)C12` (configuration not stated): the TGI in the assay with A549 NSCLC, with CCRF-CEM leukemia, in the assay with COLO 205 colon, in the assay on IGROV1 ovarian, in the assay with NCI-H23 lung and in the assay on OVCAR-8 ovarian was above 100 µM throughout. The TGI in the assay on RPMI-8226 leukemia, in the assay on SN12C renal and with SW-620 colon was above 100 µM in each case.
Take `Nc1ccc(C(=O)N/C(=C\c2ccc3c(c2)OCO3)c2nc3[nH]c(=S)[nH]c(=O)c3[nH]2)cc1`: the TGI in the assay with A549 NSCLC, with CCRF-CEM leukemia, with COLO 205 colon, in the assay with IGROV1 ovarian, in the assay on NCI-H23 lung and in the assay on OVCAR-8 ovarian was above 100 µM in each case. Besides, the TGI with SK-OV-3 ovarian, in the assay on SN12C renal and in the assay on SW-620 colon was above 100 µM throughout.
On to `CC(=O)OC1COC(n2c(=S)n(-c3ccc(C)cc3)c(=O)c3ccccc32)C(OC(C)=O)C1OC(C)=O` (configuration not stated), for which the TGI in the assay on A549 NSCLC, in the assay on COLO 205 colon, in the assay on IGROV1 ovarian, in the assay with NCI-H23 lung, in the assay on OVCAR-8 ovarian and in the assay on RPMI-8226 leukemia was above 100 µM throughout. The TGI in the assay with SK-OV-3 ovarian, in the assay on SN12C renal and with SW-620 colon was above 100 µM throughout.
`CCc1ccc2c(c1)C(=O)c1c-2n(CCCBr)c(=O)c2cc([N+](=O)[O-])ccc12`: the GI50 in the assay on A549 NSCLC was above 50 µM; in the assay on CCRF-CEM leukemia, above 50 µM; in the assay with COLO 205 colon it was above 50 µM; in the assay with IGROV1 ovarian it was 27.9 µM; in the assay on NCI-H23 lung, above 50 µM; in the assay with OVCAR-8 ovarian it was above 50 µM. Moreover, the GI50 in the assay with RPMI-8226 leukemia, in the assay on SN12C renal and in the assay with SW-620 colon was above 50 µM throughout. The TGI in the assay on A549 NSCLC, with CCRF-CEM leukemia, with COLO 205 colon, in the assay with IGROV1 ovarian, in the assay on NCI-H23 lung and with OVCAR-8 ovarian was above 50 µM throughout. For the same compound, the TGI in the assay on RPMI-8226 leukemia, in the assay with SN12C renal and in the assay with SW-620 colon was above 50 µM in each case.
`O=[S@@]1Nc2ccc(Br)cc2S1`: the TGI in the assay on A549 NSCLC, in the assay on CCRF-CEM leukemia, in the assay on IGROV1 ovarian, in the assay on NCI-H23 lung, in the assay on RPMI-8226 leukemia and in the assay on SK-OV-3 ovarian was above 100 µM each time. The TGI with SN12C renal and with SW-620 colon was above 100 µM each time.
Take `C=CCc1cc(OC)c2c(c1)C(O)CC(c1ccc(OC)c(OC)c1)O2` (configuration not stated): the TGI with A549 NSCLC, with CCRF-CEM leukemia, with COLO 205 colon, in the assay with IGROV1 ovarian, with NCI-H23 lung and in the assay on OVCAR-8 ovarian was above 100 µM throughout. Besides, the TGI in the assay with SK-OV-3 ovarian, in the assay with SN12C renal and in the assay on SW-620 colon was above 100 µM throughout.
With `COc1ccc2nc3cc(Cl)ccc3c(Sc3ccccc3[N+](=O)[O-])c2c1`, the TGI in the assay with A549 NSCLC is above 100 µM; in the assay on CCRF-CEM leukemia, above 100 µM; with COLO 205 colon, 37.7 µM; in the assay on IGROV1 ovarian it was above 100 µM; with NCI-H23 lung, above 100 µM; in the assay with OVCAR-8 ovarian it was above 100 µM. The TGI with SK-OV-3 ovarian was above 100 µM; in the assay on SN12C renal, 75.7 µM; in the assay on SW-620 colon, above 100 µM.
As to `COc1cccc(NC(=O)CC(=O)n2nc(C)c(N=Nc3ccccc3)c2C)c1`, the TGI in the assay on A549 NSCLC, in the assay on COLO 205 colon, with IGROV1 ovarian, in the assay with NCI-H23 lung, in the assay on OVCAR-8 ovarian and with RPMI-8226 leukemia was above 100 µM throughout. In addition, the TGI in the assay on SK-OV-3 ovarian, with SN12C renal and with SW-620 colon was above 100 µM each time.
In the case of `COc1ccc(-n2/c(=N/C(=S)N(C)C)ss/c2=N\C(=S)N(C)C)cc1`, the TGI with A549 NSCLC, in the assay with COLO 205 colon, in the assay with IGROV1 ovarian, with NCI-H23 lung, in the assay with OVCAR-8 ovarian and in the assay on RPMI-8226 leukemia was above 100 µM in each case. Moreover, the TGI in the assay on SK-OV-3 ovarian, in the assay with SN12C renal and with SW-620 colon was above 100 µM each time.
Turning to `CC(=O)N1[C@H](C(=O)O)CS[C@H]1c1ccncc1`, the TGI in the assay with A549 NSCLC, in the assay on CCRF-CEM leukemia, in the assay with COLO 205 colon, with IGROV1 ovarian, with NCI-H23 lung and in the assay on OVCAR-8 ovarian was above 100 µM throughout. Also, the TGI with RPMI-8226 leukemia, in the assay on SN12C renal and in the assay with SW-620 colon was above 100 µM in each case.
For `O=C1/C(=C/c2ccc([N+](=O)[O-])cc2)COc2ccc(O)c(O)c21`, the GI50 in the assay on A549 NSCLC is 2.04 µM; with COLO 205 colon, 1.47 µM; in the assay with IGROV1 ovarian, 1.25 µM; with NCI-H23 lung it was 1.77 µM; in the assay with OVCAR-8 ovarian it was 2.29 µM; with RPMI-8226 leukemia, 0.316 µM. Besides, the values for the GI50 with SK-OV-3 ovarian, in the assay with SN12C renal and with SW-620 colon were 2.98 µM, 1.54 µM and 1.31 µM, respectively. The TGI in the assay with A549 NSCLC came out at 5.17 µM; in the assay on COLO 205 colon it was 3.69 µM; in the assay with IGROV1 ovarian it was 3.55 µM; in the assay on NCI-H23 lung, 3.74 µM; in the assay with OVCAR-8 ovarian it was 9.93 µM; in the assay with RPMI-8226 leukemia, 1.01 µM. Further, the TGI in the assay on SK-OV-3 ovarian came to 9.62 µM; in the assay with SN12C renal, 4.19 µM; with SW-620 colon, 3.07 µM.
